According to patent US20250304549A1, “HYDROXYAMIDE DERIVATIVE AND USE THEREOF” (SICHUAN HUIYU PHARMACEUTICAL CO., LTD., priority 2022, published 2025):
Where a name gives a salt, the structure may show the parent alone.

What was measured:
LSD1 = LSD1 (Homo sapiens (Human), UniProt O60341); test: In vitro enzyme inhibition assay - LSD1 (HTRF); assay type: biochemical
Procedure: 1. In Vitro Enzyme Inhibition Assay—LSD1
Initially, a master solution of 90 μM test compound (dissolved in DMSO) was prepared and sequentially diluted with DMSO in a 5-fold concentration gradient to yield a total of 9 concentrations of the compound working solution 1 (90×). Subsequently these 9 concentrations of working solution 1 were sequentially diluted by a 30-fold concentration gradient, i.e., 2 μL of working solution 1 was aspirated and added to 58 μL of Buffer, mixed on a vortex mixer with sufficient shaking to yield 9 concentrations of the screening test compound working solution 2 (3×). […] The mixture was incubated at room temperature for 15 minutes. […] Afterward, 2 μL of a termination solution (containing 5.4 mM 2-PCPA) was added to each well, mixed evenly, and incubated for another 15 minutes. Finally 4 μL of a pre-mixed antibody solution of Eu-anti H3K4 (PerkinElmer, TRF0404-D) and allophycocyanin (Prozyme, PJ27S) (1:1) was added to each well, mixed evenly, and incubated for 60 minutes. […] The inhibition rate was calculated through the following formula: […]
(§1) Note: ‘Negative’ refers to the group without the inhibitor; ‘Blank’ refers to the group without the enzyme.
(§2) The IC50 value was calculated by fitting the inhibition rate by GraphPad Prism software, employing log (inhibitor) vs. response-Variable Slope (four parameters) model.

pan-HDAC = test: In vitro enzyme inhibition assay - HDAC (HDAC-Glo I/II), pan-HDAC; assay type: biochemical
Procedure: 2. In Vitro Enzyme Inhibition Assay—HDAC
The effect of the compound on the enzymatic activity of pan-HDAC and two isoforms (HDAC1 and HDAC8) was examined using the HDAC-Glo I/II Assay and Screening System assay to assess the level of inhibition of HDAC protease activity and selectivity in each isoform. The proteins and detection reagents were from the HDAC-Glo™ I/II Assay and Screening System (Promega). A 1 mM stock solution of the compound was prepared in DMSO and diluted in a 5-fold gradient to create a series of 8 concentrations, and a specific volume of the highest concentration was diluted 25 times with HDAC Buffer to obtain 4× working solution of the compound. […] The 384-well plate was then read on a multifunctional microplate reader, with the Luminescence channel selected to record Luminescence values (RLU). The inhibition rate was calculated using the following formula: […]
as §1, §2

NCI-H1417 cells = test: In vitro cell inhibition assay - H1417 cell proliferation (CellTiter-Glo); assay type: cell-based; conditions: Homo sapiens, NCI-H1417, H1417 small cell lung cancer cell proliferation
Procedure: 3. In Vitro Cell Inhibition Assay—H1417 Cell Proliferation
The inhibitory effect of the compounds on cell proliferation was assessed by detecting the number of viable cells using the CellTiter-Glo® reagent. […] The compounds were sequentially diluted in a 5-fold concentration gradient with DMSO to obtain 8 different concentrations o. These were diluted with BEGM (containing 10% FBS) cell culture medium to obtain the compound working solution (2×), which was added to the cell supernatant at 100 μL per well. The incubation continued for 7 days at 37° C., 5% CO2. The plate was then removed and equilibrated to room temperature (25° C.) along with the CellTiter-Glo® mixing reagent for 10-30 minutes. After centrifugation, 100 μL of the culture medium was carefully aspirated from each well, and 85 μL of CellTiter-Glo® reagent was added. The cells were thoroughly mixed with the CellTiter-Glo® mixing reagent using a microplate shaker for 2 min. and then incubated at room temperature for 10 min. The 96-well plate was subsequently placed on a multifunctional microplate reader to record the Luminescence values (RLU). • The inhibition rate was calculated using the following formula: […]
(§3) Note: ‘Negative’ refers to the group without inhibitors; ‘Blank’ refers to the group without cells.
(§4) The IC50 value was determined by fitting the inhibition rate by GraphPad Prism software.

NCI-H69 cells = test: In vitro cell inhibition assay - NCI-H69 cell proliferation (CellTiter-Glo); assay type: cell-based; conditions: Homo sapiens, NCI-H69, H69 small cell lung cancer cell proliferation
Procedure: 4. In Vitro Cell Inhibition Assay—NCI-H69 Cell Proliferation
The inhibitory effect of the compounds on cell proliferation was assessed by detecting the number of viable cells using the CellTiter-Glo® reagent. NCI-H69 cells in the logarithmic growth phase were collected and inoculated into transparent bottom 96-well plates at a density 1×10^3 cells per well with 100 μL medium, and incubated at 37° C., 5% CO2 overnight. The compounds were sequentially diluted in a 5-fold concentration gradient with DMSO to obtain 8 different concentrations These were then diluted with RPMI-640 (containing 20% FBS) cell culture medium to obtain the compounds working solution (2×), which was added to the cell supernatant at 100 μL per well. The incubation continued for 7 days at 37° C., 5% CO2. The plate was then removed and equilibrated to room temperature (25° C.) along with the CellTiter-Glo® mixing reagent for 10-30 minutes. After centrifugation at 1200 rpm for 5 minutes, 120 μL of the culture medium was carefully aspirated from each well, and 60 μL of CellTiter-Glo® reagent was added. The cells were thoroughly mixed with the CellTiter-Glo® mixing reagent using a microplate shaker for 2 min. and then incubated at room temperature for 10 min. The 96-well plate was subsequently placed on a multifunctional microplate reader to record the Luminescence values (RLU).
The inhibition rate was calculated using the following formula: […]
as §3, §4

SMILES | IC50 (LSD1) | IC50 (pan-HDAC) | IC50 (NCI-H1417 cells) | IC50 (NCI-H69 cells)
Cc1noc2cc(-c3cnc(N4CCC(NCc5ccc(/C=C/C(=O)NO)cn5)CC4)c(C#N)c3-c3ccc(C#N)c(F)c3)c(F)cc12 [Example 236, (E)-3-(6-(((1-(3-Cyano-4-(4-cyano-3-fluorophenyl)-5-(5-fluoro-3-methylbenzo[d]isoxazol-6-yl)pyridin-2-yl)piperidin-4-yl)amino)methyl)pyridin-3-yl)-N-hydroxyacrylamide formate] | 0.59 nM | 37 nM | 6.02 nM | 410 nM
COc1ccc(-c2cnc(N3CCC(NCc4ccc(/C=C/C(=O)NO)cc4)CC3)c(CC#N)c2-c2ccc(C#N)nc2)cc1O [Example 261, (E)-3-(4-(((1-(6-Cyano-3′-(cyanomethyl)-5′-(3-hydroxy-4-methoxyphenyl)-[3,4′-bipyridin]-2′-yl)piperidin-4-yl)amino)methyl)phenyl)-N-hydroxyacrylamide formate] | 3.18 nM | 1.42 nM | 19 nM | 8.47 nM
COc1cc(F)c(-c2cnc(N3CCC(NCc4ccc(/C=C/C(=O)NO)cc4)CC3)c(C)c2-c2ccc(C#N)nc2)cc1O [Example 262, (E)-3-(4-(((1-(6-Cyano-5′-(2-fluoro-5-hydroxy-4-methoxyphenyl)-3′-methyl-[3,4′-bipyridin]-2′-yl)piperidin-4-yl)amino)methyl)phenyl)-N-hydroxyacrylamide formate] | 7.04 nM | 0.61 nM | 11.8 nM | 11.1 nM
N#Cc1ccc(-c2nc(N3CCC(N)CC3)cc(OCCCCCCC(=O)NO)c2-c2ccc(OCCO)cc2)cc1F [Example 17, 7-((6-(4-Aminopiperidin-1-yl)-2-(4-cyano-3-fluorophenyl)-3-(4-(2-hydroxyethoxy)phenyl)pyridin-4-yl)oxy)-N-hydroxyheptanamide formate] | 23.8 nM | 21.6 nM | > 1000 nM | 3270 nM
CC(C)(O)Cn1nnc2cc(-c3cnc(N4CCC(NCc5ccc(/C=C/C(=O)NO)cc5)CC4)c(C#N)c3-c3ccc(C#N)c(F)c3)c(F)c(F)c21 [Example 226, (E)-3-(4-(((1-(3-Cyano-4-(4-cyano-3-fluorophenyl)-5-(6,7-difluoro-1-(2-hydroxy-2-methylpropyl)-1H-benzo[d][1,2,3]triazol-5-yl)pyridin-2-yl)piperidin-4-yl)amino)methyl)phenyl-N-hydroxyacrylamide formate] | 0.02 nM | 24.8 nM | 2.31 nM | 99.2 nM
COc1ccc(-c2cnc(N3CCC(NCc4ccc(/C=C/C(=O)NO)cc4)CC3)cc2-c2ccc(C#N)nc2)cc1O [Example 272, ((E)-3-(4-(((1-(6-Cyano-5′-(3-hydroxy-4-methoxyphenyl)-[3,4′-bipyridin]-2′-yl)piperidin-4-yl)amino)methyl)phenyl)-N-hydroxyacrylamide formate] | 25.2 nM | 0.3 nM | 16.8 nM | 13.3 nM
COc1cc(F)c(-c2cnc(N3CCC(NCc4ccc(/C=C/C(=O)NO)cc4)CC3)c(F)c2-c2ccc(C#N)nc2)cc1O [Example 270, (E)-3-(4-(((1-(6-Cyano-3′-fluoro-5′-(2-fluoro-5-hydroxy-4-methoxyphenyl)-[3,4′-bipyridin]-2′-yl)piperidin-4-yl)amino)methyl)phenyl)-N-hydroxyacrylamide formate] | 24.8 nM | 0.32 nM | 4.88 nM | 3.24 nM
CC1(NCc2ccc(/C=C/C(=O)NO)cc2)CCN(c2ncc(-c3ccc(OC(F)(F)F)c(O)c3)c(-c3ccc(C#N)c(F)c3)c2C#N)CC1 [Example 214, (E)-3-(4-(((1-(3-Cyano-4-(4-cyano-3-fluorophenyl)-5-(3-hydroxy-4-(trifluoromethoxy)phenyl)pyridin-2-yl)-4-methylpiperidin-4-yl)amino)methyl)phenyl)-N-hydroxyacrylamide formate] | 4.98 nM | 143 nM | 7.9 nM | 496 nM
COc1ccc(-c2ccc(N3CCC(NCc4ccc(/C=C/C(=O)NO)cc4)CC3)c(C#N)c2-c2ccc(C#N)nc2)cc1O [Example 267, (E)-3-(4-(((1-(3-Cyano-2-(6-cyanopyridin-3-yl)-3′-hydroxy-4′-methoxy-[1,l′-biphenyl]-4-yl)piperidin-4-yl)amino)methyl)phenyl)-N-hydroxyacrylamide formate] | 7.36 nM | 1.93 nM | 7.49 nM | 13.6 nM
COc1ccc(-c2cnc(N3CCC(NCc4ccc(CCC(=O)NO)cc4Cl)CC3)c(C#N)c2-c2ccc(C#N)c(F)c2)cc1O [Example 222, 3-(3-chloro-4-((1-(3-cyano-4-(4-cyano-3-fluorophenyl)-5-(3-hydroxy-4-methoxyphenyl)pyridin-2-yl)piperidin-4-yl)amino)methyl) phenyl)-N-hydroxypropanamide formate] | 0.03 nM | 11.5 nM | 6.42 nM | 35.8 nM
COc1ccc(-c2cnc(N3CCC(NCc4ccc(/C=C/C(=O)NO)cc4F)CC3)c(F)c2-c2ccc(C#N)nc2)cc1O [Example 269, (E)-3-(4-(((1-(6-Cyano-3′-fluoro-5′-(3-hydroxy-4-methoxyphenyl)-[3,4′-bipyridin]-2′-yl)piperidin-4-yl)amino)methyl)-3-fluorophenyl)-N-hydroxyacrylamide hydrochloride] | 193 nM | 0.93 nM | 2.66 nM | 1.87 nM
COc1ccc(-c2c(OCCCCCCC(=O)NO)cc(N3C4CCC3CC(N)C4)nc2-c2ccc(C#N)c(F)c2)cc1O (centres unmarked) [Example 9, 7-((6-(3-Amino-8-azabicyclo[3.2.1]octan-8-yl)-2-(4-cyano-3-fluorophenyl)-3-(3-hydroxy-4-methoxyphenyl)pyridin-4-yl)oxy)-N-hydroxyheptanamide hydrochloride] | 1.82 nM | 25.3 nM | 915 nM | 3100 nM
COc1ccc(-c2cnc(N3CCC(NCc4ccc(SCC(=O)NO)cc4)CC3)c(C#N)c2-c2ccc(C#N)c(F)c2)cc1O [Example 216, 2-((4-((1-(3-cyano-4-(4-cyano-3-fluorophenyl)-5-(3-hydroxy-4-methoxyphenyl)pyridin-2-yl)piperidin-4-yl)amino)methyl)phenyl) thio)-N-hydroxyacetamide formate] | 0.15 nM | 3.57 nM | 6.06 nM | 51.6 nM
COc1ccc(-c2c(-c3ccc(C#N)c(F)c3)nc(N3CCC(NCc4ccc(/C=C/C(=O)NO)cc4)CC3)n(C)c2=O)cc1O [Example 67, (E)-3-(4-(((1-(4-(4-Cyano-3-fluorophenyl)-5-(3-hydroxy-4-methoxy-phenyl)-1-methyl-6-oxo-1,6-dihydro-pyrimidin-2-yl)piperidin-4-yl)amino)methyl)phenyl)-N-hydroxy-acrylamide formate] | 1.89 nM | 39 nM | 21.2 nM | 444 nM
